In patent US20070043105A1, “Preventive for cerebal stroke recurrence” (ASTELLAS PHARMA INC., priority 2003, published 2007):

Legend:
eNOS = details: cited from earlier work
[1] = system: hypertension cases or CHD-having cases; details: cited from earlier work
[2] = system: stroke-prone spontaneously hypertensive rats (SHR-SP); experiment: Survival rate after onset of the stroke in SHR-SP rats; assay type: in vivo, rat; details: for survival rate: control 3/28 (10.7%)
Procedure: (§1) The dose was 3 and 30 mg/kg, and it was repeatedly orally administered once a day.
(§2) SHR-SP male rats (9-week age when bought, by Nippon SLC) were bred under a constant-temperature and constant-humidity condition. The feed was solid SP feed for breeding SHR-SP rats; and every rat was kept to freely drink tap water as automatically supplied thereto. The body weight of each rat was measured everyday, and the rats were checked for an cerebral stroke attack (Stroke, Vol. 20(9), pp. 1212-1218, 1989; Journal of Pharmacology & Experimental Therapeutics, Vol. 291(2), pp. 569-575, 1999). The cerebral stroke attack in the rats of this line is accompanied by neurologic symptoms such as paralysis or hemiplegia (European Journal of Pharmacology, Vol. 192 (1), pp. 165-167, 1991), and abnormal body weight change such as rapid body weight reduction. The abnormal body weight change may be considered to be caused by the deterred drinking and eating owing to the cerebral stroke attack (Brain Research, Vol. 452 (1-2), pp. 323-328, 1988; Stroke, Vol. 20(8), pp. 1089-1091, 1989; European Journal of Pharmacology, Vol. 192 (1), pp. 165-167, 1991).
Vehicle or atorvastatin was orally administered everyday, once a day from day of the first stroke to death.
(§3) A Steel test was used to the neurologic symptom and recurrence scores, and a Log-rank test was applied to the survival rate.

[3] = system: stroke-prone spontaneously hypertensive rats (SHR-SP); experiment: Blood pressure, heart beat and total cholesterol level in SHR-SP rats after primary stroke attack; assay type: in vivo, rat; details: administration groups (3 and 30 mg/kg/day), within 2 weeks after the primary cerebral stroke attack
[4] = system: stroke-prone spontaneously hypertensive rats (SHR-SP); experiment: Cerebral stroke recurrence score (daily body weight change) after primary stroke attack in SHR-SP rats; assay type: in vivo, rat; details: vs control
Procedure: as §1, §2, §3

[5] = system: stroke-prone spontaneously hypertensive rats (SHR-SP); experiment: Cerebral stroke recurrence-accompanied neurologic symptom score in SHR-SP rats; assay type: in vivo, rat
Excerpt: Regarding the neurologic symptom, both the fore-legs and both the hind legs of a test case are checked for the paralysis and the activity depression as the items of the neurologic symptoms thereof, and they are scored depending on the degree of the symptoms. Concretely, according to a reference (European Journal of Pharmacology, 192, 165-167, 1991), they are normal state (score 0), light symptom (score 1), middle symptom (score 2) and heavy symptom (score 3); and the final data of an individual are the total of the scores of these items. The maximum score is 15.
as §1, §2
The rats were checked for their neurologic symptoms on the day the first stroke occurred and 7 and 14 days later by the modified method of Yamamoto (Brain Research, Vol. 452(1-2), pp. 323-328, 1988; Stroke, Vol. 20(8), pp. 1089-1091, 1989; European Journal of Pharmacology, Vol. 192(1), pp. 165-167, 1991). Both the fore-legs and both the hind legs of the rats were checked for the paralysis and the activity depression as the items of the neurologic symptoms thereof. […] The final data of the individual rat are the total of the scores of these items. The maximum score is 15.
as §3

SHR-SP rats = details: administration before attack; cited from earlier work
[6] = 3 mg/kg/day p.o., day 14 after the primary cerebral stroke attack, Steel test
[7] = 30 mg/kg/day p.o., day 7 after the primary cerebral stroke attack
[8] = 30 mg/kg/day p.o., day 14 after the primary cerebral stroke attack, Steel test

Row | SMILES | eNOS activity (eNOS) | primary preventive effect for cerebral stroke [1] | survival rate ([2]; 3 mg/kg/day p.o., day 35 after the primary cerebral stroke attack (6/29)) [%] | improvement of survival rate vs control, Log-rank test ([2]; 30 mg/kg/day p.o.) | survival rate ([2]; 30 mg/kg/day p.o., day 35 after the primary cerebral stroke attack (8/24)) [%] | diastolic pressure vs control group [3] | heart beat vs control group [3] | mean blood pressure vs control group [3] | systolic pressure vs control group [3] | total cholesterol level vs control group [3] | cerebral stroke recurrence symptoms (recurrence score) [4, 6] | cerebral stroke recurrence symptoms (recurrence score) [4, 7] | cerebral stroke recurrence symptoms (recurrence score) [4, 8] | neurologic symptoms (score) ([5]; 3 mg/kg/day p.o., day 7 after the primary cerebral stroke attack) | neurologic symptoms (score) [5, 6] | level of neurologic symptoms reached ([5]; 30 mg/kg administration group, day 14 after the primary cerebral stroke attack) | neurologic symptoms (score) [5, 7] | neurologic symptoms (score) [5, 8] | prevention of cerebral stroke attack (SHR-SP rats) | survival rate (SHR-SP rats)
1 | CC(C)c1c(C(=O)Nc2ccccc2)c(-c2ccccc2)c(-c2ccc(F)cc2)n1CC[C@@H](O)C[C@@H](O)CC(=O)O [atorvastatin, (-)-(3R,5R)-7-[2-(4-fluorophenyl)-5-isopropyl-3-phenyl-4-phenylcarbamoyl-1H-pyrrol-1-yl]-3,5-dihydroxyheptanoic acid] | increases eNOS activity | effective for preventing a primary cerebral stroke | 20.7 | significant difference | 33.3 | no significant difference | no significant difference | no significant difference | no significant difference | no significant difference | significant improvement | improved symptoms | significant improvement | improved | significant improvement | restored nearly to the ordinary level | improved | significant improvement |  | 
2 | COCc1c(C(C)C)nc(C(C)C)c(/C=C/[C@@H](O)C[C@@H](O)CC(=O)O)c1-c1ccc(F)cc1 [serivastatin] |  |  |  |  |  |  |  |  |  |  |  |  |  |  |  |  |  |  | effective for prevention of cerebral stroke attack | effective for increasing a survival rate
